The series in a line: LogD shake-flask, octanol and water. In kind it is physicochemical. To be noted: pH 7.4.

`c1ccc(Cc2c[nH]c3ncc(-c4cnn(C5CCNCC5)c4)cc23)cc1` [Compound 6]: the “reduction in logD (versus compound 5)” value is on record as “over 1.5 log units”.

Source of the values: PMC7812667 (ACS Medicinal Chemistry Letters, 2020).
